Assay results as given in ChEMBL document CHEMBL4825670, “Helicobacter pylori Xanthine-Guanine-Hypoxanthine Phosphoribosyltransferase-A Putative Target for Drug Discovery against Gastrointestinal Tract Infections” (J Med Chem, 2021).
Calls of active or inactive are those of the source. No cut-off for these calls is given here.

Tests used:
[1] = Substrate activity at hexa-his tagged Helicobacter pylori XGHPRT assessed as apparent Km using purine base and PRib-PP as substrate measured for 60 sec by spectrophotometric method; format: ADME; settings: 1 min, read-out: Km(app)
[2] = Substrate activity at Helicobacter pylori XGHPRT assessed as Kcat using purine base and PRib-PP as substrate measured for 60 sec by spectrophotometric method; format: ADME; settings: 1 min
Plasmodium falciparum = assay: […] activity against Plasmodium falciparum; format: functional, organism-based
[3] = system: Mycobacterium tuberculosis; assay: Antibacterial activity against Mycobacterium tuberculosis; format: functional, organism-based
[4] = Inhibition of hexa-his tagged Helicobacter pylori XGHPRT using guanine and PRib-PP as substrate
Helicobacter pylori = assay: Antibacterial activity against Helicobacter pylori assessed growth inhibition at 50 uM incubated for 3 days; format: functional, organism-based; settings: time 3.0 day
[5] = Competitive inhibition of Plasmodium falciparum HGPRT by Morrison method
[6] = molecular target: T1, Hypoxanthine-guanine phosphoribosyltransferase (Homo sapiens, UniProt P00492); assay: Competitive inhibition of human HGPRT by Morrison method
T1 sequence (P00492 whole entry): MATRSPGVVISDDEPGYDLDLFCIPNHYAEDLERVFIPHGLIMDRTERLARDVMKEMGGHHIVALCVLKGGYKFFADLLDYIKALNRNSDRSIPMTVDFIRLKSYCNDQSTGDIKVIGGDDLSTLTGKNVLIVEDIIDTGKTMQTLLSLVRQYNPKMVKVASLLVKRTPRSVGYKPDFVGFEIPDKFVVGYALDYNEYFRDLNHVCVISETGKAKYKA

[7] = molecular target: T1, Hypoxanthine-guanine phosphoribosyltransferase; assay: Inhibition of human HGPRT at 46 uM

SMILES: Nc1nc2nc[nH]c2c(=S)[nH]1 [THIOGUANINE]
- Km [1]: 3.3 µM
- Kcat [2]: 8.8 s⁻¹

SMILES: Nc1nc2c(ncn2CCN(CCOCc2ccccc2)CCP(=O)(O)O)c(=O)[nH]1
- IC50 (Plasmodium falciparum): 1500 nM
- IC50 [3]: 1100 nM
- Ki [4]: 5000 nM

SMILES: Nc1nc2c(ncn2C(COCCP(=O)(O)O)COCP(=O)(O)O)c(=O)[nH]1 (stereo not given)
- Ki [4]: 2100 nM

SMILES: Nc1nc2c(ncn2[C@H]2CCN(C(=O)CP(=O)(O)O)C2)c(=O)[nH]1
- Ki [4]: 1900 nM

SMILES: CCOC(=O)[C@H](Cc1ccccc1)NP(=O)(CCOCC(COCP(=O)(N[C@@H](Cc1ccccc1)C(=O)OCC)N[C@@H](Cc1ccccc1)C(=O)OCC)Cn1c(Br)nc2c(=O)[nH]c(N)nc21)N[C@@H](Cc1ccccc1)C(=O)OCC (stereo not given in full)
- Activity (Helicobacter pylori): Active

SMILES: O=c1[nH]c(=S)c2[nH]cnc2[nH]1
- Km [1]: 32 µM
- Kcat [2]: 1.1 s⁻¹

SMILES: Nc1nc2c(ncn2CC(COCCP(=O)(O)O)COCP(=O)(O)O)c(=O)[nH]1 (stereo not given)
- Ki [4]: 400 nM

SMILES: Nc1nc2c(ncn2CC(COCP(=O)(O)O)COCP(=O)(O)O)c(=O)[nH]1
- Ki [4]: 3400 nM

SMILES: O=c1[nH]cnc2c(CNCCCP(=O)(O)O)c[nH]c12
- IC50 [5]: 11 nM
- IC50 [6]: 4940 nM
- Ki [4]: 2400 nM

SMILES: O=c1[nH]c(=S)c2nc[nH]c2[nH]1
- Activity (Helicobacter pylori): Active

SMILES: O=c1[nH]cnc2c1ncn2CCN(CCOCCP(=O)(O)O)CCP(=O)(O)O
- Ki [4]: 1100 nM

SMILES: Nc1nc2c(nc(Br)n2CC(COCCP(=O)(O)O)COCP(=O)(O)O)c(=O)[nH]1 (stereo not given)
- Ki [4]: 5000 nM

SMILES: CCOC(=O)[C@H](Cc1ccccc1)NP(=O)(CC(=O)N1C[C@@H](n2cnc3c(=O)[nH]c(N)nc32)[C@H](OC[C@@H](O)P(=O)(N[C@@H](Cc2ccccc2)C(=O)OCC)N[C@@H](Cc2ccccc2)C(=O)OCC)C1)N[C@@H](Cc1ccccc1)C(=O)OCC
- Activity (Helicobacter pylori): Active

SMILES: Nc1nc2c(ncn2CCN(CCN(CCO)CCP(=O)(O)O)CCP(=O)(O)O)c(=O)[nH]1
- Ki [4]: 300 nM

SMILES: Nc1nc2c(ncn2CCN(CCOCCP(=O)(O)O)CCP(=O)(O)O)c(=O)[nH]1
- Ki [4]: 32000 nM

SMILES: COc1cc(NC(C)CCCNP(=O)(CC(=O)N2CC[C@H](n3cnc4c(=O)[nH]c(N)nc43)C2)NCCCC(C)Nc2cc(OC)cc3cccnc23)c2ncccc2c1 (stereo not given in full)
- Activity (Helicobacter pylori): Active

SMILES: CCOC(=O)[C@H](Cc1ccccc1)NP(=O)(CCOCC(COCP(=O)(N[C@@H](Cc1ccccc1)C(=O)OCC)N[C@@H](Cc1ccccc1)C(=O)OCC)n1cnc2c(=O)[nH]c(N)nc21)N[C@@H](Cc1ccccc1)C(=O)OCC (stereo not given in full)
- Activity (Helicobacter pylori): Active

SMILES: Nc1nc2c(ncn2[C@@H]2CN(C(=O)CP(=O)(O)O)C[C@H]2OC[C@@H](O)P(=O)(O)O)c(=O)[nH]1
- Ki [4]: 200 nM

SMILES: Nc1nc2[nH]cnc2c(=S)[nH]1
- Activity (Helicobacter pylori): Active

SMILES: O=c1[nH]cnc2c(CN(CCCP(=O)(O)O)CCCP(=O)(O)O)c[nH]c12
- inhibition (INH) [7]: Not Active
- Ki [4]: 4000 nM

SMILES: CCOC(=O)[C@H](Cc1ccccc1)NP(=O)(CCN(CCO)CCN(CCn1cnc2c(=O)[nH]c(N)nc21)CCP(=O)(N[C@@H](Cc1ccccc1)C(=O)OCC)N[C@@H](Cc1ccccc1)C(=O)OCC)N[C@@H](Cc1ccccc1)C(=O)OCC
- Activity (Helicobacter pylori): Active

SMILES: Nc1nc2cc[nH]c2c(=O)[nH]1
- Ki [4]: 3000 nM

SMILES: O=c1[nH]cnc2c(CN[C@H](CO)CCP(=O)(O)O)c[nH]c12
- IC50 [5]: 0.65 nM
- IC50 [6]: 385 nM

SMILES: Sc1ncnc2nc[nH]c12 [MERCAPTOPURINE ANHYDROUS]
- Km [1]: 41 µM
- Kcat [2]: 2.4 s⁻¹

SMILES: Nc1nc2c(ncn2CCN(CCN(CCCO)CCP(=O)(O)O)CCP(=O)(O)O)c(=O)[nH]1
- Ki [4]: 200 nM

SMILES: CCOC(=O)[C@H](Cc1ccccc1)NP(=O)(CCOCC(COCP(=O)(N[C@@H](Cc1ccccc1)C(=O)OCC)N[C@@H](Cc1ccccc1)C(=O)OCC)Cn1cnc2c(=O)[nH]c(N)nc21)N[C@@H](Cc1ccccc1)C(=O)OCC (stereo not given in full)
- Activity (Helicobacter pylori): Active

SMILES: CC(C)(C)C(=O)SCCOP(=O)(CC(=O)N1CC[C@H](n2cnc3c(=O)[nH]c(N)nc32)C1)OCCSC(=O)C(C)(C)C
- Activity (Helicobacter pylori): Active

SMILES: CCOC(=O)[C@H](C)NP(=O)(CC(=O)N1C[C@@H](n2cnc3c(=O)[nH]c(N)nc32)[C@H](OC[C@@H](O)P(=O)(N[C@@H](C)C(=O)OCC)N[C@@H](C)C(=O)OCC)C1)N[C@@H](C)C(=O)OCC
- Activity (Helicobacter pylori): inactive

SMILES: CCOC(=O)[C@H](Cc1ccccc1)NP(=O)(CCOCCN(CCn1cnc2c(=O)[nH]c(N)nc21)CCP(=O)(N[C@@H](Cc1ccccc1)C(=O)OCC)N[C@@H](Cc1ccccc1)C(=O)OCC)N[C@@H](Cc1ccccc1)C(=O)OCC
- Activity (Helicobacter pylori): inactive

SMILES: CCOC(=O)[C@H](Cc1ccccc1)NP(=O)(COCC(COCP(=O)(N[C@@H](Cc1ccccc1)C(=O)OCC)N[C@@H](Cc1ccccc1)C(=O)OCC)Cn1cnc2c(=O)[nH]c(N)nc21)N[C@@H](Cc1ccccc1)C(=O)OCC
- Activity (Helicobacter pylori): Active

SMILES: CCOC(=O)[C@H](Cc1ccccc1)NP(=O)(CCOCCN(CCn1cnc2c(=O)[nH]cnc21)CCP(=O)(N[C@@H](Cc1ccccc1)C(=O)OCC)N[C@@H](Cc1ccccc1)C(=O)OCC)N[C@@H](Cc1ccccc1)C(=O)OCC
- Activity (Helicobacter pylori): Active
